This passage reports EC50 results from patent US20230346961A1, “GLP-1 AND GIP RECEPTOR CO-AGONISTS” (Novo Nordisk A/S, priority 2020, published 2023).

Starred links: 1 amine or outer side, 2 acyl side, 3 side chain; linkers in the order of their positions; H or OH if unused. Non-standard residues stand in square brackets, D forms with d. Residues, ends and D or L forms follow the SMILES beside them. Groups on a side chain read outwards from the residue. *: point of attachment. C18 diacid = O=C(O)CCCCCCCCCCCCCCCCC(=O)*; γGlu = O=C(O)[C@H](CCC(=O)[*:2])N[*:1]; εLys = N[C@@H](CCCCN[*:1])C(=O)[*:2]; Aib = CC(C)(N)C(=O)O

One assay has as its target human GLP-1 receptor (Homo sapiens, UniProt P43220). Nature of the assay: cell-based. The note with it: hGLP-1R.
Another assay has as its target T1, mouse GIP receptor (Mus musculus, UniProt Q0P543).
T1 sequence (Q0P543 19-460): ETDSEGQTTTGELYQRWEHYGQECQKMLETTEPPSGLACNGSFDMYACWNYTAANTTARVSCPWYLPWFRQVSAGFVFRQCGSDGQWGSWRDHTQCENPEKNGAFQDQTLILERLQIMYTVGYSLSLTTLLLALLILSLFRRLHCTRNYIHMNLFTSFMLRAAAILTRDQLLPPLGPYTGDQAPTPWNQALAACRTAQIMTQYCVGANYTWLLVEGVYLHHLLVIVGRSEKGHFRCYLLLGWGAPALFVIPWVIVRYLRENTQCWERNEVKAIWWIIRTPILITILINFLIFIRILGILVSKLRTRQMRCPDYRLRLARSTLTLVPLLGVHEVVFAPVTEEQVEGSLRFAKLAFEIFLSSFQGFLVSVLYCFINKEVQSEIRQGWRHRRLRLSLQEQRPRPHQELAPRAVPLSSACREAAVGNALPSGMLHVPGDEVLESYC
The assay can be described thus: cell-based.

A further assay deals with T2, mouse GLP-1 receptor (Mus musculus, UniProt O35659).
T2 sequence (O35659 22-463): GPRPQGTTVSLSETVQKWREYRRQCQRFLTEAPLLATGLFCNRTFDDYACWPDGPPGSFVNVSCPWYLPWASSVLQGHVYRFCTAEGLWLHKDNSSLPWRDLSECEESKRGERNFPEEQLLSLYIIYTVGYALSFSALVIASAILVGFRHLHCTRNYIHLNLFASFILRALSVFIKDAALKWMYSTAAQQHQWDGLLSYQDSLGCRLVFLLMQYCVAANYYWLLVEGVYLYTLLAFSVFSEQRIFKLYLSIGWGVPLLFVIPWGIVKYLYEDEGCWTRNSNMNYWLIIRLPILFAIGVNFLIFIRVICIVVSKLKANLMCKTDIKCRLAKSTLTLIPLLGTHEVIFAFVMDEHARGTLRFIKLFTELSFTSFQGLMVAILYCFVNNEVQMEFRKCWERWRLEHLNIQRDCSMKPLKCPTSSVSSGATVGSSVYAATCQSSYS

human GLP-1 receptor, sequence (P43220 24-463): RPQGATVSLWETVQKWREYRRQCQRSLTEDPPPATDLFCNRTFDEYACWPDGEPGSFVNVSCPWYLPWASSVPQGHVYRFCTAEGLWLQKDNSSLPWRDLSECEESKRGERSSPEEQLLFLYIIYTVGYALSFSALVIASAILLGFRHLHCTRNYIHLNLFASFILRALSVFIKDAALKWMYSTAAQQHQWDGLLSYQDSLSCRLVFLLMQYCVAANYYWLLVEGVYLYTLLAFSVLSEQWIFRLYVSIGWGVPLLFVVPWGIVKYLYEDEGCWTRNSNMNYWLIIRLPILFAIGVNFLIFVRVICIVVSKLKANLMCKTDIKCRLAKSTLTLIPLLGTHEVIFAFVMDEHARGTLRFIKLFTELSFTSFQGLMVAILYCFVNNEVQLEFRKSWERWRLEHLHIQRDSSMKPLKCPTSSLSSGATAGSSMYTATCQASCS
Experimental for human GLP-1 receptor: (§1) The in vitro functional potency is the measure of target receptor activation in a whole cell assay.
(§2) In vitro functional potency was determined by measuring the response of the target receptor in a reporter gene assay in individual cell lines. […] When the respective receptor is activated, it results in the production of cAMP, which in turn results in expression of the luciferase protein. When assay incubation is completed, luciferase substrate (luciferin) is added resulting in the enzymatic conversion of luciferin to oxyluciferin and producing bioluminescence. The luminescence is measured as the readout for the assay.
(§3) The cells lines used in these assays were BHK cells with BHKTS13 as a parent cell line. The cell lines were derived from a clone containing the CRE luciferase element and were established by further transfection with the respective receptor to obtain the relevant cell line.
(§4) The cells were cultured at 37° C. with 5% CO2 in Cell Culture Medium. They were aliquoted and stored in liquid nitrogen. The cells were kept in continuous culture and were seeded out the day before each assay.
(§5) GLP-1R and GcgR Cell Culture Medium consisted of DMEM medium with 10% FBS, 500 μg/mL G418, and 300 μg/mL hygromycin. GIPR Cell Culture Medium consisted of DMEM medium with 10% FBS, 400 μg/mL G418, and 300 μg/mL hygromycin. Assay Buffer consisted of DMEM w/o phenol red, 10 mM Hepes, 1×Glutamax, 1% ovalbumin, and 0.1% Pluronic F-68 with the addition of HSA at twice the final assay concentration.
(§6) • 1) Cells were plated at 5000 cells/well and incubated overnight in the assay plate. • 2) Cells were washed once in DPBS. • 3) Stocks of the test compounds and reference compounds in concentrations ranging from 100-300 μM were diluted 1:150 in Assay Buffer. Compounds were then diluted 1:10 in column 1 of a 96 deep well dilution plate and then carried across the row creating a 3.5 fold, 12 point dilution curve. • 4) Assay Buffer (50 μl aliquot) with or without HSA was added to each well in the assay plate. • 5) A 50 μl aliquot of compound or blank was transferred from the dilution plate to the assay plate containing the Assay Buffer with or without HSA. • 6) The assay plate was incubated for 3 h in a 5% CO2 incubator at 37° C. 7) The cells were washed once with DPBS. • 8) A 100 μl aliquot of DPBS was added to each well of the assay plate. • 9) A 100 μl aliquot of steadylite plus reagent (light sensitive) was added to each well of the assay plate. • 10) Each assay plate was covered with aluminum foil to protect it from light and shaken at 250 RPM for 30 min at room temperature. • 11) Each assay plate was read in a microtiter plate reader.
(§7) The data from the microtiter plate reader was first regressed in an Excel in order to calculate the x-axis, log scale concentrations based on the individual test compound's stock concentration and the dilutions of the assay. […] The software performs a non-linear regression (log(agonist) vs response). A minimum of two replicates was measured for each sample. The reported values are averages of the replicates.
Experimental for mouse GIP receptor: as §1, §2, §3, §4, §5, §6, §7

For `CC[C@H](C)[C@H](NC(=O)[C@H](CO)NC(=O)[C@H](Cc1ccc(O)cc1)NC(=O)[C@H](CC(=O)O)NC(=O)[C@H](CO)NC(=O)[C@@H](NC(=O)[C@H](Cc1ccccc1)NC(=O)[C@@H](NC(=O)CNC(=O)[C@H](CCC(=O)O)NC(=O)C(C)(C)NC(=O)[C@@H](N)Cc1ccc(O)cc1)[C@@H](C)O)[C@@H](C)O)C(=O)N[C@@H](Cc1ccc(O)cc1)C(=O)N[C@@H](CC(C)C)C(=O)N[C@@H](CC(=O)O)C(=O)N[C@@H](CCCCN)C(=O)N[C@@H](CCC(N)=O)C(=O)N[C@@H](C)C(=O)N[C@@H](C)C(=O)NC(C)(C)C(=O)N[C@@H](CCC(=O)O)C(=O)N[C@@H](Cc1ccccc1)C(=O)N[C@H](C(=O)N[C@@H](CC(N)=O)C(=O)N[C@@H](Cc1c[nH]c2ccccc12)C(=O)N[C@@H](CC(C)C)C(=O)N[C@@H](CC(C)C)C(=O)N[C@@H](C)C(=O)NCC(=O)NCC(=O)N1CCC[C@H]1C(=O)N[C@@H](CO)C(=O)N[C@@H](CO)C(=O)NCC(=O)N[C@@H](C)C(=O)N1CCC[C@H]1C(=O)N1CCC[C@H]1C(=O)N1CCC[C@H]1C(=O)N[C@@H](CO)C(=O)N[C@@H](CCCCNC(=O)[C@@H](N)CCCCNC(=O)[C@@H](N)CCCCNC(=O)CC[C@H](NC(=O)CCCCCCCCCCCCCCCCC(=O)O)C(=O)O)C(N)=O)C(C)C` [Compound 10], the EC50 (usually the concentration that produces a half-maximal response) on human GLP-1 receptor (CRE Luc 0% HSA EC50, 0% HSA) was 18.2 pM; on human GLP-1 receptor (CRE Luc 1% HSA EC50, 1% HSA), 298 pM; at mouse GIP receptor, 259 pM; at mouse GLP-1 receptor it was 2.1 pM.
Turning to `CC[C@H](C)[C@H](NC(=O)[C@H](CO)NC(=O)[C@H](Cc1ccc(O)cc1)NC(=O)[C@H](CC(=O)O)NC(=O)[C@H](CO)NC(=O)[C@@H](NC(=O)[C@H](Cc1ccccc1)NC(=O)[C@@H](NC(=O)CNC(=O)[C@H](CCC(=O)O)NC(=O)C(C)(C)NC(=O)[C@@H](N)Cc1ccc(O)cc1)[C@@H](C)O)[C@@H](C)CC)C(=O)N[C@@H](Cc1ccc(O)cc1)C(=O)N[C@@H](CC(C)C)C(=O)N[C@@H](CC(=O)O)C(=O)N[C@@H](CCCCN)C(=O)N[C@@H](CCC(N)=O)C(=O)N[C@@H](C)C(=O)N[C@@H](C)C(=O)NC(C)(C)C(=O)N[C@@H](CCCCNC(=O)[C@@H](N)CCCCNC(=O)[C@@H](N)CCCCNC(=O)CC[C@H](NC(=O)CCCCCCCCCCCCCCCCC(=O)O)C(=O)O)C(=O)N[C@@H](Cc1ccccc1)C(=O)N[C@H](C(=O)N[C@@H](CC(N)=O)C(=O)N[C@@H](Cc1c[nH]c2ccccc12)C(=O)N[C@@H](CC(C)C)C(=O)N[C@@H](CC(C)C)C(=O)N[C@@H](C)C(=O)NCC(=O)NCC(=O)N1CCC[C@H]1C(=O)N[C@@H](CO)C(=O)N[C@@H](CO)C(=O)NCC(=O)N[C@@H](C)C(=O)N1CCC[C@H]1C(=O)N1CCC[C@H]1C(=O)N1CCC[C@H]1C(=O)N[C@@H](CO)C(N)=O)C(C)C` [Compound 11] (H-Y[Aib]EGTFISDYSIYLDKQAA[Aib]K([εLys-εLys-γGlu-C18 diacid])FVNWLLAGGPSSGAPPPS-NH2; N-terminus assumed), the half-maximal effective concentration (EC50) on human GLP-1 receptor (CRE Luc 0% HSA EC50, 0% HSA) turned out to be 394 pM; on mouse GIP receptor, 13.7 pM; at mouse GLP-1 receptor, 281 pM.
With `CC[C@H](C)[C@H](NC(=O)[C@H](CO)NC(=O)[C@@H](NC(=O)[C@H](CC(=O)O)NC(=O)[C@H](CO)NC(=O)[C@@H](NC(=O)[C@H](Cc1ccccc1)NC(=O)[C@@H](NC(=O)CNC(=O)[C@H](CCC(=O)O)NC(=O)C(C)(C)NC(=O)[C@@H](N)Cc1c[nH]cn1)[C@@H](C)O)[C@@H](C)O)C(C)C)C(=O)N[C@@H](Cc1ccc(O)cc1)C(=O)N[C@@H](CC(C)C)C(=O)N[C@@H](CC(=O)O)C(=O)N[C@@H](CCCCN)C(=O)N[C@@H](CCC(N)=O)C(=O)N[C@@H](C)C(=O)N[C@@H](C)C(=O)NC(C)(C)C(=O)N[C@@H](CCCCNC(=O)[C@@H](N)CCCCNC(=O)[C@@H](N)CCCCNC(=O)CC[C@H](NC(=O)CCCCCCCCCCCCCCCCC(=O)O)C(=O)O)C(=O)N[C@@H](Cc1ccccc1)C(=O)N[C@H](C(=O)N[C@@H](CC(N)=O)C(=O)N[C@@H](Cc1c[nH]c2ccccc12)C(=O)N[C@@H](CC(C)C)C(=O)N[C@@H](CC(C)C)C(=O)N[C@@H](C)C(=O)NCC(=O)NCC(=O)N1CCC[C@H]1C(=O)N[C@@H](CO)C(=O)N[C@@H](CO)C(=O)NCC(=O)N[C@@H](C)C(=O)N1CCC[C@H]1C(=O)N1CCC[C@H]1C(=O)N1CCC[C@H]1C(=O)N[C@@H](CO)C(N)=O)C(C)C` [Compound 12] (H-H[Aib]EGTFTSDVSIYLDKQAA[Aib]K([εLys-εLys-γGlu-C18 diacid])FVNWLLAGGPSSGAPPPS-NH2; N-terminus assumed), the EC50 on human GLP-1 receptor (CRE Luc 0% HSA EC50, 0% HSA) was 2.9 pM; at mouse GIP receptor, > 10000 pM; at mouse GLP-1 receptor, 2.2 pM.
For the molecule `CC[C@H](C)[C@H](NC(=O)[C@H](CO)NC(=O)[C@H](Cc1ccc(O)cc1)NC(=O)[C@H](CC(=O)O)NC(=O)[C@H](CO)NC(=O)[C@@H](NC(=O)[C@H](Cc1ccccc1)NC(=O)[C@@H](NC(=O)CNC(=O)[C@H](CCC(=O)O)NC(=O)C(C)(C)NC(=O)[C@@H](N)Cc1ccc(O)cc1)[C@@H](C)O)[C@@H](C)O)C(=O)N[C@@H](Cc1ccc(O)cc1)C(=O)N[C@@H](CC(C)C)C(=O)N[C@@H](CCC(=O)O)C(=O)N[C@@H](CCCCN)C(=O)N[C@@H](CCC(N)=O)C(=O)N[C@@H](C)C(=O)N[C@@H](C)C(=O)NC(C)(C)C(=O)N[C@@H](CCCCNC(=O)[C@@H](N)CCCCNC(=O)[C@@H](N)CCCCNC(=O)CC[C@H](NC(=O)CCCCCCCCCCCCCCCCC(=O)O)C(=O)O)C(=O)N[C@@H](Cc1ccccc1)C(=O)N[C@H](C(=O)N[C@@H](CC(N)=O)C(=O)N[C@@H](Cc1c[nH]c2ccccc12)C(=O)N[C@@H](CC(C)C)C(=O)N[C@@H](CC(C)C)C(=O)N[C@@H](C)C(=O)NCC(=O)NCC(=O)N1CCC[C@H]1C(=O)N[C@@H](CO)C(=O)N[C@@H](CO)C(=O)NCC(=O)N[C@@H](C)C(=O)N1CCC[C@H]1C(=O)N1CCC[C@H]1C(=O)N1CCC[C@H]1C(=O)N[C@@H](CO)C(N)=O)C(C)C` [Compound 15] (H-Y[Aib]EGTFTSDYSIYLEKQAA[Aib]K([εLys-εLys-γGlu-C18 diacid])FVNWLLAGGPSSGAPPPS-NH2; N-terminus assumed), the concentration for a half-maximal effect (EC50) on human GLP-1 receptor (CRE Luc 0% HSA EC50, 0% HSA) was determined as 6.1 pM; at human GLP-1 receptor (CRE Luc 1% HSA EC50, 1% HSA), 128 pM; on mouse GIP receptor it was 27.3 pM; on mouse GLP-1 receptor, 1.7 pM.
As for `CC[C@H](C)[C@H](NC(=O)[C@H](CO)NC(=O)[C@H](Cc1ccc(O)cc1)NC(=O)[C@H](CC(=O)O)NC(=O)[C@H](CO)NC(=O)[C@@H](NC(=O)[C@H](Cc1ccccc1)NC(=O)[C@@H](NC(=O)CNC(=O)[C@H](CCC(=O)O)NC(=O)C(C)(C)NC(=O)[C@@H](N)Cc1ccc(O)cc1)[C@@H](C)O)[C@@H](C)O)C(=O)N[C@@H](Cc1ccc(O)cc1)C(=O)N[C@@H](CC(C)C)C(=O)N[C@@H](CCC(=O)O)C(=O)N[C@@H](CCCCN)C(=O)N[C@@H](CCC(N)=O)C(=O)N[C@@H](C)C(=O)N[C@@H](C)C(=O)NC(C)(C)C(=O)N[C@@H](CCCCNC(=O)[C@@H](N)CCCCNC(=O)[C@@H](N)CCCCNC(=O)CC[C@H](NC(=O)CCCCCCCCCCCCCCCCC(=O)O)C(=O)O)C(=O)N[C@@H](Cc1ccccc1)C(=O)N[C@H](C(=O)N[C@@H](CC(N)=O)C(=O)N[C@@H](Cc1c[nH]c2ccccc12)C(=O)N[C@@H](CC(C)C)C(=O)N[C@@H](CC(C)C)C(=O)N[C@@H](C)C(=O)NCC(=O)NCC(=O)N1CCC[C@H]1C(=O)N[C@@H](CO)C(=O)N[C@@H](CO)C(=O)NCC(=O)N[C@@H](C)C(N)=O)C(C)C` [Compound 18] (H-Y[Aib]EGTFTSDYSIYLEKQAA[Aib]K([εLys-εLys-γGlu-C18 diacid])FVNWLLAGGPSSGA-NH2; N-terminus assumed), the EC50 was determined as 3.3 pM at human GLP-1 receptor (CRE Luc 0% HSA EC50, 0% HSA); 89.9 pM at human GLP-1 receptor (CRE Luc 1% HSA EC50, 1% HSA); 24.3 pM on mouse GIP receptor; 2 pM at mouse GLP-1 receptor.
